The text below walks through data of ChEMBL document CHEMBL4831556, “Discovery of a Novel Potent and Selective Calcium Release-Activated Calcium Channel Inhibitor: 2,6-Difluoro-N-(2'-methyl-3'-(4-methyl-5-oxo-4,5-dihydro-1,3,4-oxadiazol-2-yl)-[1,1'-biphenyl]-4-yl)benzamide. Structure-Activity Relationship and Preclinical Characterization” (J Med Chem, 2021).

Molecules are shown by their SMILES.

Data set [1] in a line: Inhibition of SOCE in rat RBL-2H3 cells preincubated for 5 mins with thapsigargin followed by calcium chloride addition and measured after 5 mins by Fura-2AM dye based analysis. The format is cell-based.
The target in data set [2] is T1, ORAI1/STIM1 (Homo sapiens, UniProt Q13586+Q96D31). The data set is described as follows: Inhibition of Orai1/STIM1 (unknown origin) expressed in HEK293 cells assessed as reduction in Ca2+-release activated Ca2+ entry current by manual patch clamp based electrophysiological method. The format is cell-based. (The patch-clamp technique gives a direct electrical read-out from membranes.)

Data set [3] in a line: AUClast in Lewis rat at 10 mg/kg, po measured upto 24 hrs by LC-MS/MS analysis. As to conditions: in vivo. Further details: route oral, dose 10 mg/kg, time <=24. The format is ADME, organism-based.
Data set [4] in a line: in vivo. To be noted: DBA/1J, mouse, po, 0.75 mg/kg.
Data set [5] is described as follows: Tmax in collagen-induced rheumatoid arthritis DBA/1J mouse model at 0.75 mg/kg, po administered once daily for 15 days in presence of 3 mg/kg compound 36. To be noted: in vivo, time 15 day. The format is ADME, organism-based.
The nature of data set [6]: Tmax in collagen-induced rheumatoid arthritis DBA/1J mouse model at 0.75 mg/kg, po administered once daily for 15 days. The format is ADME, organism-based. To be noted: in vivo, time 15 day.
Data set [7] can be described thus: AUClast in collagen-induced rheumatoid arthritis DBA/1J mouse model at 0.75 mg/kg, po administered once daily for 15 days. The format is ADME, organism-based. More on the design: route oral, time 15 day, dose 0.75 mg/kg. As to conditions: in vivo.
A short description of data set [8]: in vivo. As to conditions: DBA/1J, mouse, po, 0.75 mg/kg. This is another data set of the same source.
Description: Cmax in collagen-induced rheumatoid arthritis DBA/1J mouse model at 0.75 mg/kg, po administered once daily for 15 days
Data set [9] in a line: AUClast in collagen-induced rheumatoid arthritis DBA/1J mouse model at 0.75 mg/kg, po administered once daily for 15 days in presence of 3 mg/kg compound 36. As to conditions: in vivo. More on the design: route oral, dose 0.75 mg/kg, time 15 day. The format is ADME, organism-based.
The target in data set [10] is Protein orai-2/Stromal interaction molecule 1 (Homo sapiens, UniProt Q13586+Q96SN7). The data set is described as follows: Inhibition of Orai2/STIM1 (unknown origin). The format is protein-complex assay.
Data set [11] concerns the target T1, ORAI1/STIM1. The data set is described as follows: Inhibition of Orai1/STIM1 (unknown origin). The format is protein-complex assay.
Data set [12] addresses T1, ORAI1/STIM1. The data set is described as follows: Inhibition of human STIM1/Orai1 expressed in HEK293 cells assessed as reduction in Orai1 current by electrophysiological method. The format is cell-based.
Data set [13] concerns the target Stromal interaction molecule 1/Protein orai-3 (Homo sapiens, UniProt Q13586+Q9BRQ5). As to the kind of experiment: Inhibition of human STIM1/Orai3 expressed in HEK293 cells assessed as reduction in Orai3 current by electrophysiological method. The format is cell-based.
A short description of data set [14]: Half life in Lewis rat at 10 mg/kg, po measured upto 24 hrs by LC-MS/MS analysis. As to conditions: in vivo. The format is ADME, organism-based.
A short description of data set [15]: Cmax in Lewis rat at 1 mg/kg, iv measured upto 24 hrs by LC-MS/MS analysis. The data set is classed as ADME, organism-based. More on the design: route intravenous, dose 1 mg/kg, time <=24. As to conditions: in vivo.
Data set [16] can be described thus: Oral bioavailability in Lewis rat at 10 mg/kg measured upto 24 hrs by LC-MS/MS analysis. The data set is classed as ADME, organism-based. To be noted: in vivo.
A short description of data set [17]: AUClast in Lewis rat at 1 mg/kg, iv measured upto 24 hrs by LC-MS/MS analysis. To be noted: in vivo. The format is ADME, organism-based. More on the design: route intravenous, dose 1 mg/kg, time <=24.
The nature of data set [18]: Tmax in Lewis rat at 10 mg/kg, po measured upto 24 hrs by LC-MS/MS analysis. The format is ADME, organism-based. To be noted: in vivo.
Data set [19] is described as follows: Inhibition of SOCE in human Jurkat E6.1 cells preincubated for 10 to 30 mins in presence of thapsigargin followed by calcium chloride addition and measured after 10 mins by FLIPR-tetra analysis. The data set is classed as cell-based.
Data set [20] in a line: Half life in Lewis rat at 1 mg/kg, iv measured upto 24 hrs by LC-MS/MS analysis. The format is ADME, organism-based. To be noted: in vivo.
The nature of data set [21]: Cmax in Lewis rat at 10 mg/kg, po measured upto 24 hrs by LC-MS/MS analysis. The data set is classed as ADME, organism-based. More on the design: route oral, dose 10 mg/kg, time <=24. As to conditions: in vivo.
A short description of data set [22]: Tmax in Lewis rat at 1 mg/kg, iv measured upto 24 hrs by LC-MS/MS analysis. The format is ADME, organism-based. To be noted: in vivo.
A short description of data set [23]: Clearance in Lewis rat at 1 mg/kg, iv measured upto 24 hrs by LC-MS/MS analysis. The format is ADME, organism-based. As to conditions: in vivo.
Data set [24] in a line: Volume of distribution at steady state in Lewis rat at 1 mg/kg, iv measured upto 24 hrs by LC-MS/MS analysis. As to conditions: in vivo, read-out: Vdss. The data set is classed as ADME, organism-based.

T1 sequence (Q96D31 whole entry): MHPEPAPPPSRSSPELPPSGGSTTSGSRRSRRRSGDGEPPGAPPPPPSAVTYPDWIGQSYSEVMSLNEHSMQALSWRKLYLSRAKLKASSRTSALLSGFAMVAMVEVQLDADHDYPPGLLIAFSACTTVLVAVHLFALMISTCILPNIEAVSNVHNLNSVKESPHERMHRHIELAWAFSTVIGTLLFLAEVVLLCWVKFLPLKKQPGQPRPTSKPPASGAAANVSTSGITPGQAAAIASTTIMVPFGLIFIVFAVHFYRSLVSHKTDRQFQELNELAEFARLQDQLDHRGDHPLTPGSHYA
T1 sequence (Q13586 whole entry): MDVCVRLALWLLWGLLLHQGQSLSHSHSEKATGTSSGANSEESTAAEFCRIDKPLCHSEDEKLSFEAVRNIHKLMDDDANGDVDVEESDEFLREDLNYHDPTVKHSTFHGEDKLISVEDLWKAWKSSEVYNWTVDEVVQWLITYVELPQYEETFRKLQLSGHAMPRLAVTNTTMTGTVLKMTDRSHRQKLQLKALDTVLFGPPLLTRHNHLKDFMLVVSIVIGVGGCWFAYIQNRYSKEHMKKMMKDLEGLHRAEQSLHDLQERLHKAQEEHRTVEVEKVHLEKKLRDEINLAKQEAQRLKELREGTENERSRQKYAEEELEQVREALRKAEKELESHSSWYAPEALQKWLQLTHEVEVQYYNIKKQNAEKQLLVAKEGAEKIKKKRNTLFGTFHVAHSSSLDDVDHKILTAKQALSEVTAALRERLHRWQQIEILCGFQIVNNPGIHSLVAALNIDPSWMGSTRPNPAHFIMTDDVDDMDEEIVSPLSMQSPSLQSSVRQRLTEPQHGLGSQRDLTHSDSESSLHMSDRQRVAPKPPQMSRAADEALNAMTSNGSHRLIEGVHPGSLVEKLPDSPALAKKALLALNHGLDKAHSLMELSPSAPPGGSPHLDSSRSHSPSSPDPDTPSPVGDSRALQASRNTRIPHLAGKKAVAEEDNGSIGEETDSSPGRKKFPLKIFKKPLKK
Protein orai-2/Stromal interaction molecule 1, sequence (Q96SN7 whole entry): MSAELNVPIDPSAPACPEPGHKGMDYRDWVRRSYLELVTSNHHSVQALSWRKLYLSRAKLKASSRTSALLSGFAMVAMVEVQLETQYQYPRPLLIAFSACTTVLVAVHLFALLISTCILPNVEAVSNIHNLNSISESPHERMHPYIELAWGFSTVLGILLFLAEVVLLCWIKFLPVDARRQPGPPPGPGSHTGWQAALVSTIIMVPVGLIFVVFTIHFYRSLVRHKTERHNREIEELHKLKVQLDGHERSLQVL
Protein orai-2/Stromal interaction molecule 1, sequence (Q13586 whole entry): as the sequence (Q13586 whole entry) above

In the case of `O=C(Nc1ccc(-n2nc(C(F)(F)F)cc2C(F)(F)F)cc1)c1ccncc1F`, in data set [1], the IC50 (usually the concentration that gives 50% inhibition) is 490 nM.
For `O=C(Nc1ccn(Cc2c(F)cccc2C(F)(F)F)n1)c1c(F)cccc1F`, on ORAI1/STIM1 [2], the half-maximal inhibitory concentration (IC50) stood at 1000 nM.
As to `O=C(Nc1ccc(-c2cc(C(F)(F)F)ccc2Cl)cc1)c1c(F)cccc1F`, the area under the curve AUC(0-t) – broadly, exposure summed from dosing to a finite time, without extrapolation to infinity – at 24 h in data set [3] turned out to be 0.93 µM·h.
As for `CN(Cc1cnc2nc(N)nc(N)c2n1)c1ccc(C(=O)N[C@@H](CCC(=O)O)C(=O)O)cc1` [METHOTREXATE], the Cmax (usually the maximum level reached in the sampled fluid or tissue) at 360 h in the data set “in vivo [4]” was 200 nM; in the data set “in vivo [8]”, 100 nM. For the same compound, the Tmax in [5] and in [6] was 1 h each time. For the same compound, the area under the curve AUC(0-t) at 360 h in data set [7] was 0.4 µM·h; in [9], 0.6 µM·h.
For the compound `Cc1ccc(C2=NOC(C)(C)C2=O)cc1-c1cnc(NC(=O)c2c(F)cccc2F)cn1`, the exposure AUC(0-t) at 24 h in [3] was found to be 13 µM·h.
Consider `Cc1cccc(F)c1C(=O)Nc1cnc(-c2cc3c(cc2Cl)OC(F)(F)O3)cn1` [ZEGOCRACTIN], for which the IC50 is 895 nM in data set [10] and 119 nM against ORAI1/STIM1 [11].
On to `O=C(Nc1ccn(Cc2ccc(O)cc2C(F)(F)F)n1)c1c(F)cccc1F`, for which the half-inhibitory concentration (IC50) (at ORAI1/STIM1 [12]; in data set [13]) was 4000 nM each time.
Regarding `Cc1ccc(-c2nn(C)c(=O)o2)cc1-c1ccc(NC(=O)c2c(F)cccc2F)cc1`, the figures for the area under the curve AUC(0-t) at 24 h in data set [3] and in [17] were 75 µM·h and 27 µM·h, respectively. For the same compound, the half-life (in general, the time in which the quantity being followed falls by half) in data set [14] is 15.2 h; in data set [20], 7 h. Further, the peak concentration (Cmax) came out at 4400 nM in data set [15] and 4100 nM in [21]. In addition, in [16], the bioavailability (commonly dose-corrected exposure relative to a reference, in per cent) was 28%. The Tmax (in general, the time at which the peak concentration occurs) worked out at 4.8 h in data set [18] and 4.8 min in [22]. Also, the IC50 in data set [19] worked out at 140 nM. Moreover, the clearance – broadly, the rate of elimination divided by the concentration – in data set [23] stood at 1.4 mL/min/kg. Moreover, the Vd in data set [24] came to 0.7 L/kg.
